Laboratory results as given in the Deep4Chem optical property database.
One block for each compound: values may come before it.

Experiment: photoluminescence quantum yield (fraction); solvent given as SMILES

- photoluminescence quantum yield (in ClCCl): 0.54
SMILES: CN(C)c1ccc(C2=C3C=C(c4ccc(C=O)cc4)S[C@]34c3ccccc3[C@H]2c2ccccc24)cc1

SMILES: CCN(CC)c1ccc2cc(/C=C/C(=O)/C=C(O)/C=C/c3cc4ccc(N(CC)CC)cc4oc3=O)c(=O)oc2c1
- photoluminescence quantum yield (in C1CCOC1): 0.62
- photoluminescence quantum yield (in C1COCCO1): 0.66
- photoluminescence quantum yield (in CC#N): 0.06
- photoluminescence quantum yield (in CC(C)=O): 0.2
- photoluminescence quantum yield (in CCOC(C)=O): 0.56
- photoluminescence quantum yield (in CS(C)=O): 0.05
- photoluminescence quantum yield (in Cc1ccccc1): 0.76
- photoluminescence quantum yield (in ClC(Cl)Cl): 0.45
- photoluminescence quantum yield (in ClCCl): 0.44

SMILES: CCCCN1C(=O)C(=C/C=C/C=C/C=C2N(CCCC)c3ccccc3N2CCCC)C(=O)N(CCCC)C1=S
- photoluminescence quantum yield (in CC#N): 0.099
- photoluminescence quantum yield (in CCCCCC): 0.178
- photoluminescence quantum yield (in CCO): 0.074
- photoluminescence quantum yield (in CN(C)C=O): 0.127
- photoluminescence quantum yield (in CO): 0.056
- photoluminescence quantum yield (in Cc1ccccc1): 0.73
- photoluminescence quantum yield (in ClC(Cl)Cl): 0.365
- photoluminescence quantum yield (in ClCCl): 0.266
- photoluminescence quantum yield (in OCC(F)(F)F): 0.023

SMILES: c1ccc(N2c3ccccc3Sc3cc(-c4cccc5nc6ccccc6cc45)ccc32)cc1
- photoluminescence quantum yield (in CC#N): 0.0076
- photoluminescence quantum yield (in CCCCCC): 0.213
- photoluminescence quantum yield (in CCOCC): 0.17
- photoluminescence quantum yield (in ClCCl): 0.0635

- photoluminescence quantum yield (in CC#N): 0.44
SMILES: O=C(O)c1ccc(-c2ccc(-c3nc(-c4ccccc4)c4ccccn34)cc2)s1

- photoluminescence quantum yield (in ClCCl): 0.41
SMILES: O=c1c2cc(C#Cc3ccccc3)ccc2nc2ccc(C#Cc3ccccc3)cn12

- photoluminescence quantum yield (in ClCCl): 0.36
SMILES: CCCCCCN1C(=O)c2cccc3c(-c4ccc(-c5cc(-c6ccc(C)cc6)n(-c6ccccc6)n5)s4)ccc(c23)C1=O

- photoluminescence quantum yield (in CN(C)C=O): 0.95
SMILES: Nc1ccc(N2C(=O)c3ccc4c5ccc6c7c(ccc(c8ccc(c3c48)C2=O)c75)C(=O)N(c2ccc(O)cc2)C6=O)cc1

SMILES: Cc1csc2[n+]1[B-](F)(F)n1c(c3cccc4cccc1c43)=N2
- photoluminescence quantum yield (in C1CCOC1): 0.83
- photoluminescence quantum yield (in CC#N): 0.78
- photoluminescence quantum yield (in CCCCCC): 0.99
- photoluminescence quantum yield (in Cc1ccccc1): 0.99
- photoluminescence quantum yield (in ClCCl): 0.95

- photoluminescence quantum yield (in CC#N): 0.16
- photoluminescence quantum yield (in CO): 0.02
- photoluminescence quantum yield (in CS(C)=O): 0.12
- photoluminescence quantum yield (in ClC(Cl)Cl): 0.18
SMILES: O=C1c2ccccc2-c2cc3ccccc3c(=O)n21

- photoluminescence quantum yield (in CC#N): 0.11
SMILES: Cc1ccc(-c2sc(/C(C#N)=C/c3ccc(C#N)cc3)nc2-c2ccc(Cl)cc2)cc1

- photoluminescence quantum yield (in CCO): 0.06
SMILES: CNc1ccc2nc3cc(Cl)c(Cl)cc3nc2c1

- photoluminescence quantum yield (in C1CCCCC1): 0.28
SMILES: Cc1cccc(-c2cccc(C)c2)c1

- photoluminescence quantum yield (in ClCCl): 0.68
SMILES: F[B-]1(F)n2c(Oc3ccccc3)c(Cl)c(Br)c2C(Oc2ccccc2)=C2C(Br)=C(Cl)C(Oc3ccccc3)=[N+]21

SMILES: CCCCCCc1ccc(-n2c3[n+](c4c5ccccc5c5ccccc5c42)[B-](C)(C)c2cc(N(c4ccccc4)c4ccccc4)ccc2-3)cc1
- photoluminescence quantum yield (in C1CCOC1): 0.86
- photoluminescence quantum yield (in CC#N): 0.73
- photoluminescence quantum yield (in Cc1ccccc1): 0.83
- photoluminescence quantum yield (in ClCCl): 0.88

- photoluminescence quantum yield (in C1COCCO1): 0.009
- photoluminescence quantum yield (in CC#N): 0.027
- photoluminescence quantum yield (in CCO): 0.019
- photoluminescence quantum yield (in CS(C)=O): 0.089
- photoluminescence quantum yield (in O): 0.013
- photoluminescence quantum yield (in c1ccccc1): 0.008
SMILES: Cc1c(OCC(=O)O)cc2c3c([nH]c2c1C)C(=O)CCC3

SMILES: CCc1ccc(-c2nc(-c3ccc(-n4c5ccccc5c5ccccc54)cc3)cc(-c3ccc(-n4c5ccccc5c5ccccc54)cc3)n2)cc1
- photoluminescence quantum yield (in C1CCOC1): 0.6
- photoluminescence quantum yield (in CN(C)C=O): 0.74
- photoluminescence quantum yield (in Cc1ccccc1): 0.71
- photoluminescence quantum yield (in ClC(Cl)Cl): 0.58

SMILES: O=C1c2cccc3cc4ccccc4c(c23)C(=O)N1Cc1ccccn1
- photoluminescence quantum yield (in C1CCOC1): 0.83
- photoluminescence quantum yield (in CCCCCC): 0.61
- photoluminescence quantum yield (in CCO): 0.91
- photoluminescence quantum yield (in Cc1ccccc1): 0.69
- photoluminescence quantum yield (in ClCCl): 0.93

- photoluminescence quantum yield (in CC#N): 0.168
SMILES: N#C/C(=C\c1ccncc1)c1nc(-c2ccc(Cl)cc2)cs1

- photoluminescence quantum yield (in ClC(Cl)Cl): 0.02
SMILES: Cc1c2c(c(C)c3ccccc13)C1=CC3Nc4ccccc4NC3C=C12 (stereo unspecified)
